From paper PMC6261607, “Novel high–throughput myofibroblast assays identify agonists with therapeutic potential in pulmonary fibrosis that act via EP2 and EP4 receptors” (PLoS ONE, 2018)
Like-named read-outs stand apart in the source and are kept apart here.

Columns and labels:
[1] = system: COL1 protein in NHLF cells; test: RapidFire MS/MS quantification of COL1 (IPQA), standard assay; type: cell-based, human; conditions: NHLF, 5 ng/ml TGF–β1, lysed 48 h after TGF–β1, normalized to tubulin, mean ± SD, read-out: MS / MS COL1 IC50
Procedure: (§1) Cell culture medium was removed and cells were lysed on ice by adding 5 μl / well of pre–cooled protein extraction buffer containing 10 mM Tris–HCl (pH 8.0), 6 M urea and 2 M thiourea and shaking on ice on a plate shaker at 600 rpm for 30 min.
(§2) Cell lysate was transferred to a 96–well polypropylene–PCR–plate. 15 μl / well denaturation buffer (6 M urea, 50 mM ammonium bicarbonate) and 2 μl / well of 50 mM TCEP were added and samples were denatured for 1 h at 60°C using the Veriti 96–well Fast Thermal Cycler System (Applied Biosystem) with a heated lid. Plates were allowed to cool to RT. Subsequently, 2 μl of 100 mM iodoacetamide were added per well to derivatize cysteine residues. Plates were then sealed and vortexed for 2 min in the dark and incubated for 30 min at 37°C in a thermal cycler with a heated lid. 90 μl of 50 mM ammonium bicarbonate pH 7.8 were added, followed by the addition of 10 μl of trypsin at 0.02 μg / ml. Samples were trypsin–digested overnight at 37°C in a thermal cycler with heated lid. […] Samples were desalted under vacuum using an Oasis HLB 96–well (30 μm particle size, 5 mg sorbent / well) reverse phase cartridge according to the manufacturer’s instructions and eluted with 170 μl of 90% acetonitrile, 0.1% formic acid. Samples were dried down with a flow of nitrogen at 40°C, left to cool to RT and re–suspended in 40 μl 5% acetonitrile, 0.1% formic acid on a plate shaker set to 1400 rpm for 5 min. Plates were centrifuged at 4,000 rpm for 10 min and 2 times 12 μl / well of supernatant were transferred into separate 96–well plates (Greiner Bio–One), sealed and stored at 4°C until analyzed by MS / MS.
(§3) Surrogate tryptic peptides were chosen for detection of COL1 (COL1A1), α–SMA (ACTA) and tubulin (TBA1A1) and crude synthetic peptides were purchased from Thermo Fischer. After several rounds of optimization following standard workflows, […] (COL1 / COL1A1), […] (α–SMA / ACTA) and […] LC–MS / MS analysis was performed on a RapidFire™ RF360 system (Agilent Technologies) coupled to an API 5500 (ABSciex) with positive ion electrospray ionization. […] Detection was performed using multiple reaction monitoring (MRM) mode to monitor parent⟶product ion transitions (m / z). […] The source parameters were curtain gas (CUR) nitrogen: 20 psig; collision gas (CAD): 7 psig; ion source gas 1: 50.0 psig; ion source gas 2: 50.0 psig; ion spray voltage (IS): 5500 V; turbo heater temperature (TEM): 600°C; entrance potential (EP): 10V. Peak areas for COL1A1 and ACTA were normalized by dividing by TBA1A peak area.

[2] = system: normal human lung fibroblasts (NHLF); test: Impedance measurement of TGF–β1–induced myofibroblast transition (IPQA), standard assay; type: cell-based; conditions: 5 ng/ml TGF–β1, compound added with TGF–β1, impedance at t = 20 h post TGF–β1, mean ± SD, read-out: Impedance IC50
Procedure: To measure dynamic cell shape and adhesion changes during fibrotic transdifferentiation, NHLF were seeded at a density of 20,000 cells per well in FGM–2 growth medium (Lonza) containing 100 units / ml of penicillin and 100 μg / ml of streptomycin into E–plates with continued impedance signal measurement (xCELLigence system, Roche Applied Science). After overnight growth, the medium was exchanged for FBM (Lonza) supplemented with 100 units / ml of penicillin and 100 μg / ml of streptomycin and 0.1% faf BSA and cells were starved for 32 h. Compound dilution series were added and myofibroblast transition was induced by adding TGF–β1 at a concentration of 5 ng / ml, followed by continued impedance sampling for up to 48 h. For data analysis, impedance raw traces were normalized to the time point of compound addition and the baseline response (DMSO, non–TGF–β1 treated cells) was subtracted. In some cases, impedance values at defined time points were used to generate concentration–response curves to determine compound potency and efficacy using GraphPad Prism software version 7 (GraphPad Software Inc).

[3] = system: α–SMA protein in NHLF cells; test: RapidFire MS/MS quantification of α–SMA (IPQA), standard assay; type: cell-based, human; conditions: NHLF, 5 ng/ml TGF–β1, lysed 48 h after TGF–β1, normalized to tubulin, mean ± SD, read-out: MS / MS α–SMA IC50
Procedure: as §1, §2, §3

[4] = system: normal human lung fibroblasts (NHLF); test: Phenotypic high-content assay (HCA) of TGF–β1–induced fibroblast–to–myofibroblast differentiation; type: cell-based; conditions: for IC50: NHLF, 5 ng/ml TGF–β1 for 48 h, compound added with TGF–β1, mean ± SD, read-out: HCA IC50
Procedure: (§4) The plate was washed 3 times with starvation medium, e.g. fibroblast basal medium (FBM, Lonza) supplemented with 0.1% faf BSA, 100 units / ml of penicillin and 100 μg / ml of streptomycin and 250 ng / ml amphotericin B, and then starved for 24 h in 30 μl volume. NHLF were differentiated into myofibroblasts by incubation with 5 ng / ml TGF–β1 (from a stock of 20 μg / ml in 4 mM HCl, 1 mg / ml BSA) for 48 h. Compounds were prepared as 5x stocks in starvation medium and added to the starved cells to a final 1x concentration concomitant with TGF–β1 addition. The final DMSO concentration in the assay was 0.6% in all wells. 48 h after TGF–β1 addition, the medium was removed and the cells were fixed in methanol for 10 min at room temperature (RT). After fixation, cells were washed 3 times with 1 x PBS and either stored at 4°C for up to 3 days or further processed. […] Images were acquired on the Opera Phenix confocal high–content screening system (Perkin Elmer) using the 20–x water immersion lens.
(§5) DAPI stained nuclei were used to identify cells. α–SMA and FN regions were then identified and mapped to the corresponding nuclei for background correction, cell segmentation and cell feature computation to identify, classify and weigh over 400 features per cell. The computed features (S1 Table) comprise, but are not limited to, granularity, intensity, texture, area, shape and solidity of a cell in both α–SMA–and FN–expressing regions. The 0% compound effect (5 ng / ml TGF–β1) and the 100% compound effect (0 ng / ml TGF–β1) controls, were used to train and validate a support vector machine (SVM), a supervised learning model with associated learning algorithm that, once successfully validated, was applied to every cell in every well of the assayed microtiter plate. The SVM allowed autonomous weighting and classification of the characteristics and thus enabled the classifier to decide which characteristics were most relevant for the differentiation of the cell types. […] The classification of each cell was aggregated to a cell type ratio per well, represented as the computed percentage effect value per well indicative of the degree of myofibroblast differentiation. E.g. 100% equals complete myofibroblast differentiation, 0% indicates a pure fibroblast population without any signs of differentiation.

[5] = system: NHLF cells; test: RealTime–Glo MT viability assay; conditions: 10 µM compound
Procedure: The effect of compounds on cell viability was assessed by quantifying the relative metabolic activity of cells using the non–lytic luminescence–based RealTime–Glo™ MT cell viability assay (Promega) according to the manufacturer’s instructions.

[6] = system: normal human lung fibroblasts (NHLF); test: Nuclear count in the HCA, standard assay; type: cell-based; conditions: Homo sapiens, Fibroblast, 48 h, standard HCA, NHLF, 5 ng/ml TGF–β1, 48 h; read-out: Nuclear count IC50
Procedure: as §4, §5

SMILES	IC50 [1]	IC50 [2]	IC50 [3]	IC50 [4]	IC50 ([2]; Fibroblast)	IC50 ([3]; Homo sapiens)	IC50 ([4]; Homo sapiens, Fibroblast, 48 h)	also measured
CCCCCCCC(=O)c1c(O)cc(O)cc1CC(=O)OCC [Csn–B]	> 50 µM	> 50 µM	> 50 µM	39 µM				
CCOc1cc(N2CCC(O)CC2)ccc1Nc1ncc2c(n1)N(C)c1ccccc1C(=O)N2C [XMD 8–92]	5.4 µM	4.4 µM	2.4 µM	12 µM				
O=C1c2ccc(Nc3ccc(F)cc3F)cc2CCc2ccc(OC[C@H](O)CO)cc21 [L–skepinone]					5 µM	0.96 ± 0.44 µM	23 µM	IC50 ([1]; Homo sapiens, Col1, 48 h): 1.5 µM
Oc1c2ccccc2c2c3c(cccc13)N=N2 [SP600125]					48.5 µM	38 µM	> 46 µM	IC50 ([1]; Homo sapiens, Col1): 36 µM
Nc1[nH]nc2nnc(-c3c(-c4ccccc4)nn4ccccc34)cc12 [FR180204]	36 µM	50 µM	49 µM	> 46 µM				
O=C(Nc1cccc(Nc2ncc(Br)c(NCCc3cnc[nH]3)n2)c1)N1CCCC1 [BX–912]	8.7 µM	7.5 µM	8.6 µM	17 µM				
O=C(NCc1cccc(O)c1)Nc1nc(-c2ccncc2)cs1 [RKI 1447]	12.2 µM	8.4 µM	0.15 ± 0.022 µM	4.3 µM				
CC(C)NC[C@@H](C(=O)N1CCN(c2ncnc3c2[C@H](C)C[C@H]3O)CC1)c1ccc(Cl)cc1 [Ipatasertib]					43 µM	25 µM	22 µM	IC50 ([1]; Homo sapiens, Col1): > 50 µM
CC(C)(C)c1nc(-c2cccc(NS(=O)(=O)c3c(F)cccc3F)c2F)c(-c2ccnc(N)n2)s1 [Dabrafenib (GSK2118436), Dabrafenib]							2.9 µM	Effect on viability at 10 µM [% reduction] [5]: 9 % reduction; inhibition at 10 µM ([4]; Homo sapiens, Fibroblast, read-out: Effect HCA at 10 µM [% inhibition], 10 µM compound, 5 ng/ml TGF–β1, 48 h): 56%; IC50 [6]: > 25 µM
